Tests used:
[1] = test system: Candida albicans SK4b; experiment: MIC and checkerboard (FICI), planktonic cells; type: cell-based; settings: for MIC: alone, 24 h, 37 °C
Method: (§1) The MIC was determined by the micro broth dilution method in 96-well plates. […] A 10 μL containing 1×10^5 bacterial cells or 2×10^3 fungal cells were added to each well. The inoculated plates were covered with a lid, sealed with Parafilm, and incubated for 24 h at 37 °C with slight rocking on a tilting platform shaker. After incubation, the optical density at 600 nm (OD 600) of the cultures in each well was measured using an xMark™ Microplate Absorbance Spectrophotometer (Bio-Rad). The MIC was defined as the lowest concentration of antimicrobial compound at which the culture OD600 values was similar to uninoculated control wells. MBCs and MFCs were determined by transferring 100 μL from each well with no apparent growth onto appropriate agar plates, followed by incubation for 24 h at 37 °C.
(§2) The concentrations of antimicrobials used were based on previously determined MIC values. […] Microtiter plates were incubated at 37 °C for 24 h, and the results were analyzed. Each test was performed in duplicate and included a growth control without the addition of any antimicrobials.

[2] = test system: Proteus mirabilis ON153; experiment: MIC and checkerboard (FICI), planktonic cells; type: cell-based; settings: for MIC: alone, 24 h, 37 °C
Method: as §1, §2

[3] = test system: E. coli SK2; experiment: MIC and checkerboard (FICI), planktonic cells; type: cell-based; settings: for MIC: alone, 24 h, 37 °C
Method: as §1, §2

[4] = test system: Escherichia coli ON29; experiment: MIC and checkerboard (FICI), planktonic cells; type: cell-based; settings: for MIC: alone, 24 h, 37 °C
Method: as §1, §2

[5] = test system: MRSA ON184; experiment: MBC/MFC and FMCI, planktonic cells; type: cell-based, methicillin-resistant S. aureus; settings: for MBC/MFC: alone
Method: as §1, §2

[6] = test system: 12 test organisms; experiment: MBC/MFC and FMCI, planktonic cells, summary over strains; type: cell-based, bacterial and fungal organisms
Method: as §1, §2

[7] = test system: preformed biofilms of test pathogens; experiment: MBEC and FBEC index, 48 h old biofilms, summary over strains; type: cell-based, bacterial and fungal strains; settings: alone: 4% tetrasodium EDTA, 50% ethanol, 100 μg/mL chlorhexidine HCl, 24 hours
Method: The evaluation of the biofilm cultivation cell composition was evaluated using an MBEC Assay® biofilm inoculator, consisting of a polystyrene lid with 96 downward-protruding pegs and a corresponding base used to grow biofilms. A standardized inoculum was diluted in an appropriate biofilm growth medium to achieve a viable cell count of 1.5×10^6 CFU/mL of bacterial cells or 5×10^5 CFU/mL of fungal cells. Then, 150 μL of this inoculum was transferred into each appropriate well, and the peg lids were inserted into the microtiter plates. The plates were sealed with Parafilm and were incubated at optimum temperature for 48 h with slight rocking for bacteria and shaking at 200 rpm for fungal strains. After incubation, the peg lid was removed from the base and rinsed twice with sterile phosphate-buffered saline (PBS) for 2 min to remove loosely attached non-sessile cells. Before the antimicrobial challenge, the pegs in column 1 (n=8) were considered as the biofilm growth control; these pegs were removed from the lids, placed into 200 μL of recovery medium, and analyzed for starting biofilm cell numbers as described below. […] After the antimicrobial challenge, the pegs were rinsed twice with sterile PBS for 2 min and placed into a new 96-well plate containing 200 μL of recovery medium. The recovery plates were sealed with Parafilm, and biofilm cells were dislodged from the pegs by sonication for 30 min with a Branson 3510 bath sonicator. The biofilm cells in the recovery medium were serially diluted, and a drop dilution assay was performed to enumerate the viable cells.
In step (4), microtiter plates are incubated at 37 °C for 24 h. then (6), after incubation, the bacterial and fungal cells were dislodged from the pegs into the recovery medium described above.
Three 10-μL aliquots, for a total of 30 μL from each well of recovery medium, were spotted on MH agar plates and incubated for 24 hours at 37 °C. […] The FBEC determination is a modification of the FICI. […]

[8] = test system: Stenotrophomonas maltophilia ON17; experiment: MBC/MFC and FMCI, planktonic cells; type: cell-based; settings: for MBC/MFC: alone
Method: as §1, with “The MIC was defined as the lowest concentration of antimicrobial compound at which the culture OD600 values was similar to uninoculated control wells.” left out
as §2

[9] = test system: Candida albicans SK4b; experiment: MBC/MFC and FMCI, planktonic cells; type: cell-based; settings: for MBC/MFC: alone
Method: as §1, with “The MIC was defined as the lowest concentration of antimicrobial compound at which the culture OD600 values was similar to uninoculated control wells.” left out
as §2

[10] = test system: C. albicans ON47; experiment: MBC/MFC and FMCI, planktonic cells; type: cell-based; settings: for MBC/MFC: alone
Method: as §1, with “The MIC was defined as the lowest concentration of antimicrobial compound at which the culture OD600 values was similar to uninoculated control wells.” left out
as §2

[11] = test system: Pseudomonas aeruginosa SK1; experiment: MBC/MFC and FMCI, planktonic cells; type: cell-based; settings: for MBC/MFC: alone
Method: as §1, with “The MIC was defined as the lowest concentration of antimicrobial compound at which the culture OD600 values was similar to uninoculated control wells.” left out
as §2

[12] = test system: Staphylococcus aureus ON89; experiment: MBC/MFC and FMCI, planktonic cells; type: cell-based; settings: for MBC/MFC: alone
Method: as §1, §2

[13] = test system: Proteus mirabilis ON153; experiment: MBC/MFC and FMCI, planktonic cells; type: cell-based; settings: for MBC/MFC: alone
Method: as §1, §2

[14] = test system: E. coli SK2; experiment: MBC/MFC and FMCI, planktonic cells; type: cell-based; settings: for MBC/MFC: alone
Method: as §1, §2

[15] = test system: Escherichia coli ON29; experiment: MBC/MFC and FMCI, planktonic cells; type: cell-based; settings: for MBC/MFC: alone
Method: as §1, §2

[16] = test system: S. epidermidis SK9; experiment: MBC/MFC and FMCI, planktonic cells; type: cell-based; settings: for MBC/MFC: alone
Method: as §1, §2

[17] = test system: Staphylococcus epidermidis ON170; experiment: MBC/MFC and FMCI, planktonic cells; type: cell-based; settings: for MBC/MFC: alone
Method: as §1, §2

[18] = test system: Serratia marcescens SK2; experiment: MBC/MFC and FMCI, planktonic cells; type: cell-based; settings: for MBC/MFC: alone
Method: as §1, §2

## CCO [ET, ethanol]
[1]; TE + ET in combination
  MIC in combination: 1.6%
[1]
  MIC: 6.25%
[2]; TE + ET in combination
  MIC in combination: 1.6%
[2]
  MIC: 6.25%
[3]; TE + ET in combination
  MIC in combination: 6.25%
[3]
  MIC: 12.5%
[4]; TE + ET in combination
  MIC in combination: 3.125%
[4]
  MIC: 12.5%
[5]; TE + ET in combination
  MBC/MFC in combination: 3.125%
[5]
  MBC/MFC: 25%
[6]
  microbicidal activity: broad-spectrum microbicidal activity
[7]
  eradication of all established biofilms: able to eradicate all established biofilms
[8]; TE + ET in combination
  MBC/MFC in combination: 1.6%
[8]
  MBC/MFC: 6.25%
[9]; TE + ET in combination
  MBC/MFC in combination: 3.125%
[9]
  MBC/MFC: 6.25%
[10]; TE + ET in combination
  MBC/MFC in combination: 3.125%
[10]
  MBC/MFC: 6.25%
[11]; TE + ET in combination
  MBC/MFC in combination: 6.25%
[11]
  MBC/MFC: 12.5%
[12]; TE + ET in combination
  MBC/MFC in combination: 3.125%
[12]
  MBC/MFC: 25%
[13]; TE + ET in combination
  MBC/MFC in combination: 6.25%
[13]
  MBC/MFC: 12.5%
[14]; TE + ET in combination
  MBC/MFC in combination: 6.25%
[14]
  MBC/MFC: 25%
[15]; TE + ET in combination
  MBC/MFC in combination: 6.25%
[15]
  MBC/MFC: 25%
[16]; TE + ET in combination
  MBC/MFC in combination: 3.125%
[16]
  MBC/MFC: 12.5%
[17]; TE + ET in combination
  MBC/MFC in combination: 1.6%
[17]
  MBC/MFC: 6.25%
[18]; TE + ET in combination
  MBC/MFC in combination: 6.25%
[18]
  MBC/MFC: 12.5%

## O=C(O)CN(CCN(CC(=O)O)CC(=O)O)CC(=O)O.[Na].[Na].[Na].[Na] [TE, tetrasodium ethylenediaminetetraacetic acid]
[1]; TE + CH in combination
  MIC in combination: 0.063%
[1]; TE + ET in combination
  MIC in combination: 0.25%
[1]
  MIC: 1%
[2]; TE + CH in combination
  MIC in combination: 0.063%
[2]; TE + ET in combination
  MIC in combination: 0.5%
[2]
  MIC: 1%
[3]; TE + CH in combination
  MIC in combination: 0.008%
[3]; TE + ET in combination
  MIC in combination: 0.015%
[3]
  MIC: 0.5%
[4]; TE + CH in combination
  MIC in combination: 0.008%
[4]; TE + ET in combination
  MIC in combination: 0.25%
[4]
  MIC: 0.5%
[5]; TE + CH in combination
  MBC/MFC in combination: 0.125%
[5]; TE + ET in combination
  MBC/MFC in combination: 0.031%
[5]
  MBC/MFC: 2%
[6]
  microbicidal activity: broad-spectrum microbicidal activity
[7]
  eradication of all established biofilms: able to eradicate all established biofilms
[8]; TE + CH in combination
  MBC/MFC in combination: 0.031%
[8]; TE + ET in combination
  MBC/MFC in combination: 0.125%
[8]
  MBC/MFC: 1%
[9]; TE + CH in combination
  MBC/MFC in combination: 0.125%
[9]; TE + ET in combination
  MBC/MFC in combination: 0.25%
[9]
  MBC/MFC: 1%
[10]; TE + CH in combination
  MBC/MFC in combination: 0.031%
[10]; TE + ET in combination
  MBC/MFC in combination: 0.25%
[10]
  MBC/MFC: 2%
[11]; TE + CH in combination
  MBC/MFC in combination: 0.031%
[11]; TE + ET in combination
  MBC/MFC in combination: 0.031%
[11]
  MBC/MFC: 1%
[12]; TE + CH in combination
  MBC/MFC in combination: 0.008%
[12]; TE + ET in combination
  MBC/MFC in combination: 0.25%
[12]
  MBC/MFC: 1%
[13]; TE + CH in combination
  MBC/MFC in combination: 0.125%
[13]; TE + ET in combination
  MBC/MFC in combination: 0.063%
[13]
  MBC/MFC: 2%
[14]; TE + CH in combination
  MBC/MFC in combination: 0.015%
[14]; TE + ET in combination
  MBC/MFC in combination: 0.25%
[14]
  MBC/MFC: 0.5%
[15]; TE + CH in combination
  MBC/MFC in combination: 0.008%
[15]; TE + ET in combination
  MBC/MFC in combination: 0.25%
[15]
  MBC/MFC: 1%
[16]; TE + CH in combination
  MBC/MFC in combination: 0.008%
[16]; TE + ET in combination
  MBC/MFC in combination: 0.031%
[16]
  MBC/MFC: 0.5%
[17]; TE + CH in combination
  MBC/MFC in combination: 0.25%
[17]; TE + ET in combination
  MBC/MFC in combination: 0.031%
[17]
  MBC/MFC: 0.5%
[18]; TE + CH in combination
  MBC/MFC in combination: 0.125%
[18]; TE + ET in combination
  MBC/MFC in combination: 0.25%
[18]
  MBC/MFC: 2%

From US20260335495A1, “SYNERGISTIC ACTIVITY OF NOVEL COMPOUNDS AGAINST PLANKTONIC AND BIOFILM CELLS OF CLINICALLY RELEVANT PATHOGENS” (priority 2021, published 2026)
